In one experiment the target is T1, RhoA-LARG interaction (Homo sapiens, UniProt Q9NZN5).
T1 construct: human LARG (residues 765-1,138); made in house; host or cells: E. coli BL21 (DE3) (LARG), E. coli DH5α (GST-RhoA)
T1 sequence (Q9NZN5 765-1138 limits assumed): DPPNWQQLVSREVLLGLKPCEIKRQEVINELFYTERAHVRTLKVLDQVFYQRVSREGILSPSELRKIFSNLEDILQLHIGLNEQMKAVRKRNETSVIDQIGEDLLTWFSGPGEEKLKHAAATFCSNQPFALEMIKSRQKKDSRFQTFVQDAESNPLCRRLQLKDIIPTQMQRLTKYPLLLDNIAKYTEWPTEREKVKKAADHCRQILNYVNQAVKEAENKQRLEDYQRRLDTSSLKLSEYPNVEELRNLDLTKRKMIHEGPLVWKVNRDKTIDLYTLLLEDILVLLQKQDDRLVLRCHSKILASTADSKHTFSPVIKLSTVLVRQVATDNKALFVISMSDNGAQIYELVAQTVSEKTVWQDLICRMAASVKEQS
Kind of experiment: In vitro complex formation assay, LARG binding to RhoA. Conditions: for inhibition at 100 µM: read-out: Relative binding inhibition, %. On the procedure: About 1 μg of (His)6-tagged LARG DH-PH was incubated with 1 μg of EDTA-treated GSTRhoA or Cdc42 or GST alone in a binding buffer [20 mM Tris.HCl (pH 7.6), 100 mM NaCl, 1% BSA, 1% Triton X-100, 1 mM MgCl2] containing 15 μL of suspended glutathione-agarose beads. Y16 or other chemicals were added in the incubation buffer at the indicated concentrations. After an incubation at 4° C. for 1 h under constant agitation, the glutathione beads were washed twice with the binding buffer. The amount of (His)6-tagged protein coprecipitated with GST-fusion bound beads was detected by anti-His Western blotting. Similarly, cell lysates containing myc-Tiam1, (His)6-Cdc42, (His)6-TrioN, or (His)6-RhoA were mixed with purified GST-Rac1, GST-Cdc42, GST-mDia, GST-PKN, GSTROCKII, GST-p190GAP, or GST alone, and pairwise association was assessed in the presence or absence of indicated amount of Y16 and/or Rhosin.
The information in FIG. 4 was obtained by the following procedures. (A) Dose-dependent specific inhibition of LARG binding to RhoA by Y16, G04, or G04+Y16 combination at varying concentrations. (B) NIH 3T3 cells were treated with Y16, G04, or G04+Y16 combination at the indicated concentrations for 24 h in serum-free media. Cells were subsequently stimulated with 10% calf serum for 15 min and were subjected to GST-Rhotekin effector domain pull-down assays, and the activities of RhoA were examined. Relative amounts of GTP-bound form of the GTPases were quantified by densitometry measurements and normalized to those of the unstimulated cells. (C) NIH 3T3 cells were treated with Y16, G04, or G04+Y16 combination at the indicated concentrations for 24 h in serum-free media. Cells were subsequently stimulated with 10% calf serum for 15 min and were subjected to GST-Rhotekin and GST-PAK1 effector domain pull-down assays, and the activities of RhoA, Cdc42, and Rac1 were examined. Relative amounts of GTP-bound form of the GTPases were quantified by densitometry measurements and normalized to those of the nontreated cells. (D) NIH 3T3 cells were treated with Y16, G04, or G04+Y16 combination of the indicated concentrations in serum-free DMEM medium prior to stimulation with LPA (20 ng/mL) for 10 min. The cells were stained with rhodamine-phalloidin to reveal F-actin structures.
The inhibitory effects of the analogs were tested in a complex formation assay. (His)6-tagged LARG PH-DH (1 μg) was incubated with GST alone or GST-RhoA conjugated with glutathione agarose beads in the presence or absence of 100 μM indicated compounds. After an incubation at 4° C. for 1 h, the beads-associated (His)6-LARG PH-DH was detected by anti-His Western blotting. The relative inhibition of each analog was normalized to the inhibitory effect of Y16 of the same concentration.

The subject of experiment [1] is RhoA-GTP. The experiment is described as follows: RhoA activity in MCF7-derived mammospheres. The experiment is classed as cell-based. The note with it: alone at 10 μM. On the procedure: The information in FIG. 5 was obtained by the following procedures. (A) Y16, G04, or G04+Y16 combination inhibits MCF7 breast cell growth. MCF7 cells were plated at 1.5×10^4/24 well in the presence of Y16, G04, or G04+Y16 combination. Cell numbers were determined at the indicated times. (B) MCF7 cells were subjected migration assays in the presence of Y16, G04, or G04+Y16 combination. (C) The invasive activities were assayed in a Matrigel-coated transwell. (D) Y16, G04, or G04+Y16 combination inhibits RhoA and its downstream signaling activities in MCF7-derived mammospheres. (Upper) MCF7-derived mammospheres were treated with Y16, G04, or G04+Y16 combination at the indicated concentrations. Spheres were collected, and the RhoA activity was examined. Relative amounts of GTP-bound form of RhoA were quantified by densitometry measurements and normalized to those of the untreated cells. (Lower) Western blots are of p-MLC of MCF7-derived mammospheres. Y16, G04, or G04+Y16 combination inhibits MCF-7 cell-derived mammosphere formation. (E) MCF-7 cells were treated with Y16, G04, or G04+Y16 combination at the indicated concentrations for 24 h in serum-free media. MCF7 cells were dissociated to single cells with trypsin and cultured for 10 d at the density of 2×10^4/mL in suspension in the media containing G04 or Y16 at the indicated concentration. Photographs were taken after a 10-d culture. […]

The target in another experiment is RhoA (Homo sapiens, UniProt P61586). Conditions: reference 26; cited from earlier work.
RhoA, sequence (P61586 whole entry): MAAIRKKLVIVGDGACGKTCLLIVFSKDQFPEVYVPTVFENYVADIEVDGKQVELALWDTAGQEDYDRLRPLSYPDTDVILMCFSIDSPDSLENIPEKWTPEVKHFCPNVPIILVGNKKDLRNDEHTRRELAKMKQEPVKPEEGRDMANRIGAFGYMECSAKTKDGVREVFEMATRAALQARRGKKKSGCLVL
Experiment [2] relates to RhoA-GTP. The experiment is described as follows: Endogenous Rho GTPase activity assay, RhoA-GTP in NIH 3T3 cells. Type of experiment: cell-based. The note with it: Mus musculus, NIH3T3, serum stimulated, acting alone at 30 μM, read-out: inhibition of RhoA-GTP content. The procedure:
The information in FIG. 3 was obtained by the following procedures. (A and B) NIH 3T3 cells were treated with Y16 at the indicated concentrations for 24 h in serum-free media. Cells were subsequently stimulated with 10% calf serum for 15 min and were subjected to GST-Rhotekin or GST-PAK1 effector domain pull-down assays, and the activities of RhoA, Cdc42, and Rac1 were examined. Relative amounts of GTP-bound form of the GTPases were quantified by densitometry measurements and normalized to those of the unstimulated cells. […]
NIH 3T3 cells, MCF7 cells, or HME cells were grown in log phase in a 10-cm dish or a six-well dish, and were starved in serum-free medium in the presence or absence of Y16 at indicated concentrations for 24 h and were subsequently stimulated with 10% calf serum or FBS for 15 min. […] Lysates were clarified, the protein concentrations were normalized, and the GTP-bound RhoA, Rac1, or Cdc42 in the lysates were measured by respective anti-RhoA, Rac1, and Cdc42 Western blotting of the effector domain pull downs.
The information in FIG. 4 was obtained by the following procedures. […] Relative amounts of GTP-bound form of the GTPases were quantified by densitometry measurements and normalized to those of the unstimulated cells. […] Relative amounts of GTP-bound form of the GTPases were quantified by densitometry measurements and normalized to those of the nontreated cells. […]

Setting [3] is: 100 μM compound, normalized to the inhibitory effect of Y16 of the same concentration.

The inhibition is the relative decrease from the control value, in per cent. On to `O=C1NN(c2ccccc2)C(=O)/C1=C/c1ccc(OCc2ccccc2)cc1` [Compound 1], for which, on RhoA-LARG interaction (100 μM compound, normalized to the inhibitory effect of Y16 of the same concentration, 100 µM), the “Relative binding inhibition, %” value was 27.12%. The inhibition at 100 µM at RhoA-LARG interaction (setting [3]) was 27.1%.
In the case of `COc1cc(/C=C2/C(=O)NN(c3ccccc3)C2=O)ccc1O` [Compound 2], the inhibition at 100 µM on RhoA-LARG interaction (setting [3]) amounted to 13%.
Same read-out and setting: with `O=C1NN(c2ccccc2)C(=O)/C1=C\C1=NCc2ccccc21` [Compound 3] the figure was 6.75%; with `COc1cc(/C=C2/C(=O)NN(c3ccccc3)C2=O)cc(Br)c1OCCOc1ccc(C)cc1` [Compound 4], 13.8%.
Regarding `O=C1/C(=C\c2ccccc2OCc2ccccc2)CNN1c1ccc(Br)cc1` [Compound 5], on RhoA-LARG interaction (setting [3]), the inhibition at 100 µM was 7.34%.
As a reminder, the IC50 is the point on the concentration scale where inhibition reaches its midpoint. In the case of `N[C@H](Cc1c[nH]c2ccccc12)C(=O)N/N=C/c1ccc2nccnc2c1` [Compound G04, (2R)-2-amino-3-(1Hindol-3-yl)-N′-[(1E)-quinoxalin-6-ylmethylidene]propanehydrazide], in the experiment with RhoA-GTP [1], the inhibition at 10 µM was around 50%. In addition, on RhoA, the “binding affinity to RhoA” value is given as “micromolar”. Also, in the experiment on RhoA-GTP [2], the inhibition at 30 µM was around 80%. Besides, on RhoA-LARG interaction (inhibitors alone or combined together, read-out: IC50 for inhibition of RhoA binding to LARG), the IC50 was around 10 µM.

The record behind these values is US9951024B2, “Small-molecule inhibitors targeting G-protein-coupled Rho guanine nucleotide exchange factors” (Children's Hospital Medical Center, priority 2013, dated 2018).
